Several values for one entry are separate records, joined by “and”; a condition that tells them apart may be missing. Equal entries are not always repeated.
Tested on: 945468-187-T-J2-PDC spheroids viability
Assay: Anticancer human tumor 945468-187-T-J2-PDC patient-derived rectal carcinoma cell line growth inhibition [PI3K]
Details: spheroids with HUVEC and MSC; for viability, T/C: stronger effect = lower value
Source text: Combinatorial screen of targeted agents with the PI3K inhibitors inavolisib, alpelisib, duvelisib, and copanlisib in multi-cell type tumor spheroids
A high-throughput screen of multi-cell type tumor spheroids was designed to identify active combinations of targeted small molecules and PI3K pathway inhibitors. Complex spheroids include a stromal component modeled by human endothelial cells (HUVEC) and fibroblasts modeled by human mesenchymal stem cells (MSCs). The concentration ranges selected for each drug and investigational agent were based upon clinically achievable concentrations if the clinical Cmax of the agent was known.
Compounds. The drugs and investigational agents: inavolisib (NSC800729), alpelisib (NSC765974), duvelisib (NSC772469), copanlisib (NSC816437), ipatasertib (NSC767898), afuresertib (NSC778305), talazoparib (NSC767125), sapanisertib (NSC764658), selumetinib (NSC741078), tovorafenib (DAY101, NSC766906), vemurafenib (NSC761431), ravoxertinib (NSC781343), sotorasib (NSC818433), MRTX1133 (NSC 836407), abemaciclib (NSC 768073), palbociclib (NSC758247), venetoclax (NSC 766270), SY5609 (NSC837396), enzalutamide (NSC755605), and darolutamide (NSC825331), were obtained from the National Cancer Institute (NCI) Developmental Therapeutics Program Chemical Repository. The FDA-approved anticancer drug set is available from the NCI Developmental Therapeutics Program. […] The stock solutions were prepared in dimethyl sulfoxide (DMSO, Sigma-Aldrich, St. Louis, MO, cat. D2650) at 800-fold the tested concentration and stored at -70 degrees C prior to their use. All drugs and investigational agents were tested over a range starting from a high concentration at or near the clinical Cmax and decreasing in half-log increments. If the clinical Cmax for an agent had not been determined, the highest concentration tested was 10 microM.
Cell Culture. All cells were maintained in an incubator at 37 degrees C and 5% CO2 with 95% humidity. The PDC lines were cultured according to standard operating procedures established by the NCI PDMR (https://pdmr.cancer.gov/sops/default.htm). All PDCs were thawed and cultured in Matrigel-coated flasks prepared with a working solution of 1X Ham's F-12 nutrient mix, without supplementation (Invitrogen, Waltham, MA, cat. 11765054), 100 U/mL penicillin-streptomycin (Invitrogen, cat. 15140122), and 2.5% Matrigel (Corning Inc., Corning, NY, cat. 354248) for the first three passages. The 354836-022-R-J1-PDC, 475296-252-R-J1-PDC, and 997726-040-R-J2-PDC lines were cultured in 6A media, which includes advanced DMEM/F-12 (Thermo Fisher Scientific, cat. 12634028), 10 mM HEPES (Thermo Fisher Scientific, cat. 15630080), 1X GlutaMAX supplement (Thermo Fisher Scientific, cat. 35050061), 0.1 mg/mL primocin (InvivoGen, San Diego, CA, cat. ant-pm-2), 10% defined fetal bovine serum, heat inactivated (HyClone Laboratories Inc., Logan, UT, cat. SH30070.03HI), 50% L-WRN conditioned media (ATCC, cat. CRL-3276), 1.25 mM N-Acetyl-L-cysteine (Sigma-Aldrich, cat. A9165), 10 mM nicotinamide (Sigma-Aldrich, cat. N0636), 1X B-27 supplement (Thermo Fisher Scientific, cat. 17504044), 1X N-2 supplement (Thermo Fisher Scientific, cat. 17502048), and 10 microM Y-27632 dihydrochloride (Tocris Bioscience, Bristol, United Kingdom, cat. 1254). The 624824-186-R-J2-PDC line was cultured in 6C/Colon 1B media, which includes all 6A media components plus 50 ng/mL human EGF recombinant protein (Thermo Fisher Scientific, cat. PHG0311). […]

[1] = curve of first compound, second compound 0.00316 µM
[2] = curve of first compound, second compound 0.01 µM
[3] = curve of first compound, second compound 0.0316 µM
[4] = curve of first compound, second compound 0.1 µM
[5] = curve of first compound, second compound 0.316 µM
[6] = curve of first compound, second compound 1 µM
[7] = second compound 0.00316 µM, first compound 0.00949 µM
[8] = second compound 0.00316 µM, first compound 0.03 µM
[9] = second compound 0.00316 µM, first compound 0.0949 µM
[10] = second compound 0.00316 µM, first compound 0.3 µM
[11] = second compound 0.00316 µM, first compound 0.949 µM
[12] = second compound 0.00316 µM, first compound 3 µM
[13] = second compound 0.01 µM, first compound 0.00949 µM
[14] = second compound 0.01 µM, first compound 0.03 µM
[15] = second compound 0.01 µM, first compound 0.0949 µM
[16] = second compound 0.01 µM, first compound 0.3 µM
[17] = second compound 0.01 µM, first compound 0.949 µM
[18] = second compound 0.01 µM, first compound 3 µM
[19] = second compound 0.0316 µM, first compound 0.00949 µM
[20] = second compound 0.0316 µM, first compound 0.03 µM
[21] = second compound 0.0316 µM, first compound 0.0949 µM
[22] = second compound 0.0316 µM, first compound 0.3 µM
[23] = second compound 0.0316 µM, first compound 0.949 µM
[24] = second compound 0.0316 µM, first compound 3 µM
[25] = second compound 0.1 µM, first compound 0.00949 µM
[26] = second compound 0.1 µM, first compound 0.03 µM
[27] = second compound 0.1 µM, first compound 0.0949 µM
[28] = second compound 0.1 µM, first compound 0.3 µM
[29] = second compound 0.1 µM, first compound 0.949 µM
[30] = second compound 0.1 µM, first compound 3 µM
[31] = second compound 0.316 µM, first compound 0.00949 µM
[32] = second compound 0.316 µM, first compound 0.03 µM
[33] = second compound 0.316 µM, first compound 0.0949 µM
[34] = second compound 0.316 µM, first compound 0.3 µM
[35] = second compound 0.316 µM, first compound 0.949 µM
[36] = second compound 0.316 µM, first compound 3 µM
[37] = second compound 1 µM, first compound 0.00949 µM
[38] = second compound 1 µM, first compound 0.03 µM
[39] = second compound 1 µM, first compound 0.0949 µM
[40] = second compound 1 µM, first compound 0.3 µM
[41] = second compound 1 µM, first compound 0.949 µM
[42] = second compound 1 µM, first compound 3 µM
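Further: spheroids exposed to compounds for seven days before reading.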

`Cn1cnc2c(F)c(Nc3ccc(Br)cc3Cl)c(C(=O)NOCCO)cc21` + COc1c(OCCCN2CCOCC2)ccc2c3n(c(=NC(=O)c4cnc(N)nc4)nc12)CCN3 gave an IC50 [1] greater than 3 µM, an IC50 [2] greater than 3 µM and an IC50 [3] of 2.95 µM. It also gave an IC50 [4] of 0.657 µM, an IC50 [5] of less than 0.00949 µM and an IC50 [6] of less than 0.00949 µM. For the same compound, the viability, T/C [7] was 99.9%, the viability, T/C [8] was 129% and the viability, T/C [9] was 109%. It also gave a viability, T/C [10] of 94.6%, a viability, T/C [11] of 85.4% and a viability, T/C [12] of 81.5%. It also gave a viability, T/C [13] of 125%, a viability, T/C [14] of 146% and a viability, T/C [15] of 109%. For the same compound, the viability, T/C [16] was 94.1%, the viability, T/C [17] was 92.5% and the viability, T/C [18] was 67.5%. It also gave a viability, T/C [19] of 95%, a viability, T/C [20] of 111% and a viability, T/C [21] of 85.4%. For the same compound, the viability, T/C [22] was 98.6%, the viability, T/C [23] was 71.9% and the viability, T/C [24] was 49.6%. The viability, T/C [25] was 102%, the viability, T/C [26] was 94.9% and the viability, T/C [27] was 88.8%. For the same compound, the viability, T/C [28] was 74.1%, the viability, T/C [29] was 38.3% and the viability, T/C [30] was 17.7%. The viability, T/C [31] was 39.9%, the viability, T/C [32] was 40% and the viability, T/C [33] was 34.1%. It also gave a viability, T/C [34] of 21.9%, a viability, T/C [35] of 16.3% and a viability, T/C [36] of 6.67%. It also gave a viability, T/C [37] of 20%, a viability, T/C [38] of 18.6% and a viability, T/C [39] of 18.1%. For the same compound, the viability, T/C [40] was 11.3%, the viability, T/C [41] was 10.4% and the viability, T/C [42] was 5.87%.

For `Cn1nccc1Nc1nccc(-c2ccn(C(CO)c3ccc(Cl)c(F)c3)c(=O)c2)n1` (centres undefined), the viability, T/C (compound 0.1 µM) was 101% [middle of 4 runs], the viability, T/C (compound 0.316 µM) was 101% (2×) and 108% and 94.5% and the viability, T/C (compound 3.16 µM) was 94.1% [middle of 4 runs]. For the same compound, the viability, T/C (compound 10 µM) was 78.3% [middle of 4 runs] and the IC50 (curve of compound) was greater than 10 µM.

Compound `Cn1cnc2c(F)c(Nc3ccc(Br)cc3Cl)c(C(=O)NOCCO)cc21` + CC(Nc1ccc2c(c1)OCCn1cc(N3C(=O)OCC3C(F)F)nc1-2)C(N)=O has an IC50 [1] greater than 3 µM, an IC50 [2] greater than 3 µM and an IC50 [3] greater than 3 µM. The IC50 [4] was greater than 3 µM, the IC50 [5] was greater than 3 µM and the IC50 [6] was 0.714 µM. For the same compound, the viability, T/C [7] was 121%, the viability, T/C [8] was 86.4% and the viability, T/C [9] was 114%. It also gave a viability, T/C [10] of 75.8%, a viability, T/C [11] of 70.7% and a viability, T/C [12] of 74.5%. The viability, T/C [13] was 92.2%, the viability, T/C [14] was 101% and the viability, T/C [15] was 92.2%. The viability, T/C [16] was 89.4%, the viability, T/C [17] was 74.9% and the viability, T/C [18] was 78.5%. For the same compound, the viability, T/C [19] was 121%, the viability, T/C [20] was 99.6% and the viability, T/C [21] was 112%. The viability, T/C [22] was 93.7%, the viability, T/C [23] was 78.8% and the viability, T/C [24] was 74.5%. The viability, T/C [25] was 88.9%, the viability, T/C [26] was 102% and the viability, T/C [27] was 81.2%. For the same compound, the viability, T/C [28] was 80.4%, the viability, T/C [29] was 75.1% and the viability, T/C [30] was 74.2%. It also gave a viability, T/C [31] of 69.9%, a viability, T/C [32] of 88.6% and a viability, T/C [33] of 72.4%. It also gave a viability, T/C [34] of 75.6%, a viability, T/C [35] of 75.9% and a viability, T/C [36] of 66.1%. For the same compound, the viability, T/C [37] was 75.7%, the viability, T/C [38] was 72% and the viability, T/C [39] was 72.8%. For the same compound, the viability, T/C [40] was 65.2%, the viability, T/C [41] was 45% and the viability, T/C [42] was 37.6%.

— PubChem BioAssay AID1963972 (Molecular Pharmacology Branch, DTP, NCI, 2024)
